The target of the test is T1, EZH2 within the PRC2 complex (Homo sapiens, UniProt Q15910).
T1 construct: FLAG; made in house; host or cells: Sf9 cells
Put plainly: EZH2 methyltransferase scintillation proximity assay (SPA). As to conditions: Human PRC2 5 member complex (FLAG-EZH2, EED, SUZ12, RbAp48, AEBP2), 1 nM enzyme, biotinylated histone H3K27 peptide, 3H-SAM, 60 min at room temperature. The test is classed as biochemical. On the procedure: Compounds contained herein were evaluated for their ability to inhibit the methyltransferase activity of EZH2 within the PRC2 complex. Human PRC2 complex was prepared by co-expressing each of the 5 member proteins (FLAG-EZH2, EED, SUZ12, RbAp48, AEBP2) in Sf9 cells followed by co-purification. Enzyme activity was measured in a scintillation proximity assay (SPA) where a tritiated methyl group is transferred from 3H-SAM to a lysine residue on a biotinylated, unmethylated peptide substrate derived from histone H3. The peptides were captured on streptavidin-coated SPA beads and the resulting signal was read on a ViewLux plate reader.
• 1. Prepare 10 mM stock of compounds from solid in 100% DMSO. • 2. Set up an 11-point serial dilution (1:4 dilution, top concentration 10 mM) in 100% DMSO for each test compound in a 384 well plate leaving columns 6 and 18 for DMSO controls. • 3. Dispense 10 nL of compound from the dilution plate into reaction plates (Corning, 384-well polystyrene NBS, Cat#3673).
Prepare the following solutions: • 1. 1× Base Buffer, 50 mM Tris-HCl, pH 8, 2 mM MgCl2: Per 1 L of base buffer, combine 1 M Tris-HCl, pH 8 (50 mL), 1 M MgCl2 (2 mL), and distilled water (948 mL). • 2. 1× Assay Buffer: Per 10 mL of 1× Assay Buffer, combine 1× Base Buffer (9.96 mL), 1 M DTT (40 uL), and 10% Tween-20 (1 uL) to provide a final concentration of 50 mM Tris-HCl, pH 8, 2 mM MgCl2, 4 mM DTT, 0.001% Tween-20. • 3. 2× Enzyme Solution: Per 10 mL of 2× Enzyme Solution, combine 1× Assay Buffer (9.99 mL) and 3.24 uM EZH2 5 member complex (6.17 uL) to provide a final enzyme concentration of 1 nM. • 4. SPA Bead Solution: Per 1 mL of SPA Bead Solution, combine Streptavidin coated SPA beads (PerkinElmer, Cat# RPNQ0261, 40 mg) and 1× Assay Buffer (1 mL) to provide a working concentration of 40 mg/mL. • 5. 2× Substrate Solution: Per 10 mL of 2× Substrate Solution, combine 40 mg/mL SPA Bead Solution (375 uL), 1 mM biotinylated histone H3K27 peptide (200 uL), 12.5 uM 3H-SAM (240 uL; 1 mCi/mL), 1 mM cold SAM (57 uL), and 1× Assay Buffer (9.13 mL) to provide a final concentration of 0.75 mg/mL SPA Bead Solution, 10 uM biotinylated histone H3K27 peptide, 0.15 uM 3H-SAM (˜12 uCi/mL 3H-SAM), and 2.85 uM cold SAM. • 6. 2.67× Quench Solution: Per 10 mL of 2.67× Quench Solution, combine 1× Assay Buffer (9.73 mL) and 10 mM cold SAM (267 uL) to provide a final concentration of 100 uM cold SAM.
• 1. Stamp 10 nL/well of 1000× Compound to test wells (as noted above). • 2. Stamp 10 nL/well of 100% DMSO to columns 6 & 18 (high and low controls, respectively).
• 1. Dispense 5 uL/well of 1× Assay Buffer to column 18 (low control reactions). • 2. Dispense 5 uL/well of 2× Substrate Solution to columns 1-24 (note: substrate solution should be mixed to ensure homogeneous bead suspension before dispensing into matrix reservoir). • 3. Dispense 5 uL/well of 2× Enzyme Solution to columns 1-17, 19-24. • 4. Incubate the reaction for 60 min at room temperature.
• 1. Dispense 6 uL/well of the 2.67× Quench Solution to columns 1-24. • 2. Seal assay plates and spin for ˜1 min at 500 rpm. • 3. Dark adapt plates in the ViewLux instrument for 15-60 min.
• 1. Read the assay plates on the Viewlux Plate Reader utilizing the 613 nm emission filter or clear filter (300 s exposure). Reagent addition can be done manually or with automated liquid handler.
Percent inhibition was calculated relative to the DMSO control for each compound concentration and the resulting values were fit using standard IC50 fitting parameters within the ABASE data fitting software package.
The IC50 values of <10 nM indicate that the activity of compound was approaching the limit of detection in the assay. Repeating the assay run(s) may result in somewhat different IC50 values.

T1 sequence (Q15910 whole entry): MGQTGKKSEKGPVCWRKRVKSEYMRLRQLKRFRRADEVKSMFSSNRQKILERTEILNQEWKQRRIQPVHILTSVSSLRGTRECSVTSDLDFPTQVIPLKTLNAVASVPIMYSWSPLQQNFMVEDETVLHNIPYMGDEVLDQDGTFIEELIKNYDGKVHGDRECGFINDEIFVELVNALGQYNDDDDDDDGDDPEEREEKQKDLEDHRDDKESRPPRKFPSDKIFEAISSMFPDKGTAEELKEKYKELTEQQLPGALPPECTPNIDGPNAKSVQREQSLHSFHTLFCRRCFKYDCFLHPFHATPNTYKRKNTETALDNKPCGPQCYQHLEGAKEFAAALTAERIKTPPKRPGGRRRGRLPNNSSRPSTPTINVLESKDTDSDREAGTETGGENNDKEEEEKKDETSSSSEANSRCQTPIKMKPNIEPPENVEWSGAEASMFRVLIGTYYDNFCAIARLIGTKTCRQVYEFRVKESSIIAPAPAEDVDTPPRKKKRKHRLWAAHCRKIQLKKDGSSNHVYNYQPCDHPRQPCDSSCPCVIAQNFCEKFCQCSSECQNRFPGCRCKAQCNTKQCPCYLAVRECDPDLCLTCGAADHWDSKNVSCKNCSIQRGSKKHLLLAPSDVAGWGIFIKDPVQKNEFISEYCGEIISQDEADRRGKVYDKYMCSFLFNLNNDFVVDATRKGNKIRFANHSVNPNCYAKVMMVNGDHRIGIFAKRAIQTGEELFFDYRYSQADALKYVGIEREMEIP
T1 sequence (O75530 whole entry partner): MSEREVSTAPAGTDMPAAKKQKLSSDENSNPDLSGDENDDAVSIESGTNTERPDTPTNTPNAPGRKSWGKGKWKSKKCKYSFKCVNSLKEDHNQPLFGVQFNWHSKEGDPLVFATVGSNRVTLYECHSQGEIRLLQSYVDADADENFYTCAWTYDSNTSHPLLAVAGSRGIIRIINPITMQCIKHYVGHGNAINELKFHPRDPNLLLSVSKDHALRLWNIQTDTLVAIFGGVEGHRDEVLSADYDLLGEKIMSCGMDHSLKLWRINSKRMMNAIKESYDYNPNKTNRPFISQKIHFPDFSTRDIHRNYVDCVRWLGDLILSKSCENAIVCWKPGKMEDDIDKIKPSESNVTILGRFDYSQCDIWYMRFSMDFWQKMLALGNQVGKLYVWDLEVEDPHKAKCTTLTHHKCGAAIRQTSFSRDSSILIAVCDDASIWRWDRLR
T1 sequence (Q15022 whole entry partner): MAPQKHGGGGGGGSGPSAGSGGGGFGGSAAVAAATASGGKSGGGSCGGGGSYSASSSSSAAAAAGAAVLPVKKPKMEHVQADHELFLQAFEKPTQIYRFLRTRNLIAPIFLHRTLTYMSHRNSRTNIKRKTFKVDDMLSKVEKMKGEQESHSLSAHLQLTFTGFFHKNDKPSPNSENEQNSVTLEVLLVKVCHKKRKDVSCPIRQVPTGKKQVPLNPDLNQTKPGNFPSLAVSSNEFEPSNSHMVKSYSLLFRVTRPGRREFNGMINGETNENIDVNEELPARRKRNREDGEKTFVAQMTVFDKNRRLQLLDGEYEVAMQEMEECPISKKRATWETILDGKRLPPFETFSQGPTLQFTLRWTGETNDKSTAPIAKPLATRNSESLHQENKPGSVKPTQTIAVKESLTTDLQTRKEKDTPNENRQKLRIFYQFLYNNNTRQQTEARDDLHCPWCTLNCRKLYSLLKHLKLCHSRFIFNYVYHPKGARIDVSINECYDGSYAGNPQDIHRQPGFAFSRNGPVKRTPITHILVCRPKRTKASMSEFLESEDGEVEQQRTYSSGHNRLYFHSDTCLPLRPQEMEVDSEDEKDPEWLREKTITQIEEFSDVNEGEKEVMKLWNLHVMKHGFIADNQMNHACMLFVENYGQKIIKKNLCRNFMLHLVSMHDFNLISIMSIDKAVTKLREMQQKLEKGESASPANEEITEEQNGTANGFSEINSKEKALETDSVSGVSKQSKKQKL
T1 sequence (Q09028 whole entry partner): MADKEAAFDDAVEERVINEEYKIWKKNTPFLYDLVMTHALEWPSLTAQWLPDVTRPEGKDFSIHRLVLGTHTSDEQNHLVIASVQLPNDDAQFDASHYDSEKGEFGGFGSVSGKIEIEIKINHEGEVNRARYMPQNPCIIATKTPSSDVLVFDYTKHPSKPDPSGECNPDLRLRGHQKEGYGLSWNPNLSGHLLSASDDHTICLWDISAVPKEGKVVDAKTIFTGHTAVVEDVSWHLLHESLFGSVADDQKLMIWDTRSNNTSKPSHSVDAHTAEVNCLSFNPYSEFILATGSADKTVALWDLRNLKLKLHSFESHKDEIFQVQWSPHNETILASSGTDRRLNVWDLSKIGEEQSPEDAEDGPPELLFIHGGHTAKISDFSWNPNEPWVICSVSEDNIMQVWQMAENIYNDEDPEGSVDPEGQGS
T1 sequence (Q6ZN18 whole entry partner): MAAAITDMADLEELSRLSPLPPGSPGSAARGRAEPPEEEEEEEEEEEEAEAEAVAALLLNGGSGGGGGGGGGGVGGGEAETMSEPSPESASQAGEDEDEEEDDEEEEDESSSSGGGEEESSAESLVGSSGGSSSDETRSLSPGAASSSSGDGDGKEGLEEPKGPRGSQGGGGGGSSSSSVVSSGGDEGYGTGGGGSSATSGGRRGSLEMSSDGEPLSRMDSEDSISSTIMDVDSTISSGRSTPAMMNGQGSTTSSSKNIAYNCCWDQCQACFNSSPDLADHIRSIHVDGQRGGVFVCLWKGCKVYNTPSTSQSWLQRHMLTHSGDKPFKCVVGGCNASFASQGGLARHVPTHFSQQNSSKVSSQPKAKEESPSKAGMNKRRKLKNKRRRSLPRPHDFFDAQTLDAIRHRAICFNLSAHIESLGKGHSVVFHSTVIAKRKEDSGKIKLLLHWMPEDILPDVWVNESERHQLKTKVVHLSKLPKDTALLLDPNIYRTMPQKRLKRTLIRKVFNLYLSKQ

Usually IC50 stands for the concentration at which inhibition is half-maximal. The low end stands for higher potency, the high end for lower potency. On to `CCC(=C1CCN(CC(F)F)CC1)c1scc(C(=O)NCc2c(C)cc(C)[nH]c2=O)c1C` [Example 20, 5-(1-(1-(2,2-Difluoroethyl)piperidin-4-ylidene)propyl)-N-((4,6-dimethyl-2-oxo-1,2-dihydropyridin-3-yl)methyl)-4-methylthiophene-3-carboxamide], for which the IC50 is at most 10 nM.

Turning to `CC[C@@H](c1scc(C(=O)NCc2c(C)cc(C)[nH]c2=O)c1C)C1CCN(CC(F)F)CC1` [Example 21, (R)-5-(1-(1-(2,2-Difluoroethyl)piperidin-4-yl)propyl)-N-((4,6-dimethyl-2-oxo-1,2-dihydropyridin-3-yl)methyl)-4-methylthiophene-3-carboxamide], the IC50 is at most 10 nM.

On to `Cc1cc(C)c(CNC(=O)c2csc([C@H](C)C3CCN(CC(F)F)CC3)c2C)c(=O)[nH]1` [Example 22, (R)-5-(1-(1-(2,2-Difluoroethyl)piperidin-4-yl)ethyl)-N-((4,6-dimethyl-2-oxo-1,2-dihydropyridin-3-yl)methyl)-4-methylthiophene-3-carboxamide], for which the IC50 is at most 10 nM.

With `Cc1cc(C)c(CNC(=O)c2csc([C@H](C)C3CCN(CC(C)(F)F)CC3)c2C)c(=O)[nH]1` [Example 23, (R)-5-(1-(1-(2,2-Difluoropropyl)piperidin-4-yl)ethyl)-N-((4,6-dimethyl-2-oxo-1,2-dihydropyridin-3-yl)methyl)-4-methylthiophene-3-carboxamide], the IC50 is at most 10 nM.

The record behind these values is patent publication US20170334891A1, “ENHANCER OF ZESTE HOMOLOG 2 INHIBITORS” (GLAXOSMITHKLINE INTELLECTUAL PROPERTY (NO.2) LIMITED, priority 2014, published 2017).
